Experimental data published in ChEMBL document CHEMBL5442175, “EUbOPEN Chemogenomics Library - PDSP Secondary Binding” (2024).
Structures can show the parent of a compound that is named as a salt.

What was measured:
[1] = target: 5-hydroxytryptamine receptor 7 (Homo sapiens, UniProt P34969); test: (§1) PDSP Secondary Binding target: HTR7 - Compounds are tested at 10 uM concentration, plate are incubated at room temperature in the dark for 90 minutes. Reaction are stopped by vacuum filtration onto 0.3% polyethyleneimine soaked filter mats using Filtermate harvester. Scintillation cocktail is then melted onto microwave-dried filters on a hot plate and the radio activity is counted in Microbia counter.
Chain of 5-hydroxytryptamine receptor 7 (P34969 whole entry): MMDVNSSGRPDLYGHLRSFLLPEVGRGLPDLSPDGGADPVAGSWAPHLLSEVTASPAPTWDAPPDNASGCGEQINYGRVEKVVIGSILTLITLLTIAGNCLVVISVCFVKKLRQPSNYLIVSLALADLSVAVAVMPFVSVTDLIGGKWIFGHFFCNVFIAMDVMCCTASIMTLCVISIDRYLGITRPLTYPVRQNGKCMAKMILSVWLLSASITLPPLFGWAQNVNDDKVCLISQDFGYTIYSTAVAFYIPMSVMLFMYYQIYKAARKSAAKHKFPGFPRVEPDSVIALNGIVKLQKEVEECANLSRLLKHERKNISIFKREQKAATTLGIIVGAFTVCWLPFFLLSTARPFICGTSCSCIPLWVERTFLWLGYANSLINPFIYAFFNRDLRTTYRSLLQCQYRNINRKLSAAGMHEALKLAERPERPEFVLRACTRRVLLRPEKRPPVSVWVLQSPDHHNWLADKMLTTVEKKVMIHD

[2] = target: Sodium-dependent dopamine transporter (Homo sapiens, UniProt Q01959); test: as §1, with “SLC6A3” for “HTR7”
Chain of Sodium-dependent dopamine transporter (Q01959 whole entry): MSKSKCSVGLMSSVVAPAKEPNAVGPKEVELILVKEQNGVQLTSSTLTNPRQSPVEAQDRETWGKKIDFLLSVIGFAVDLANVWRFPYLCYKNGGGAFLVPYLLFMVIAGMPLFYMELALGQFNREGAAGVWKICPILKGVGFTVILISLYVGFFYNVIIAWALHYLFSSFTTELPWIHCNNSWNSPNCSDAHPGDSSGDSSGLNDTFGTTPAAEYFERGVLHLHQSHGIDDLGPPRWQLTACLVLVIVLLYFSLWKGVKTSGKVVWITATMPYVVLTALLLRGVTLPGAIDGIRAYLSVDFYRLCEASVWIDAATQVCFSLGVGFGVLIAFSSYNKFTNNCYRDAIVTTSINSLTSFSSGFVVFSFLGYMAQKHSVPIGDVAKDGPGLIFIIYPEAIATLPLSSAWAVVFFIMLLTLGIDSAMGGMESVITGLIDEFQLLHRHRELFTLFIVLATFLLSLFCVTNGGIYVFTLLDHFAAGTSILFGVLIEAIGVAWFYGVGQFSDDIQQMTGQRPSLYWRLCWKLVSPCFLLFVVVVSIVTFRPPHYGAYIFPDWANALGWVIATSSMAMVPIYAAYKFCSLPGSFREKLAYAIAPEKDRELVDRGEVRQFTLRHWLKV

[3] = target: Sigma intracellular receptor 2 (Homo sapiens, UniProt Q5BJF2); test: as §1, with “TMEM97” for “HTR7”
Chain of Sigma intracellular receptor 2 (Q5BJF2 whole entry): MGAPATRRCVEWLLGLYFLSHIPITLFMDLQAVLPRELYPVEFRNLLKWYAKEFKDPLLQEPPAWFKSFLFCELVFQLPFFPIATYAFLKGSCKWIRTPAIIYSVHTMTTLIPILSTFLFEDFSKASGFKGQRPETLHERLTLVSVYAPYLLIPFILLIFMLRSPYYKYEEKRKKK

[4] = target: T1, Alpha-2B adrenergic receptor (Homo sapiens, UniProt P18089); test: as §1, with “ADRA2B” for “HTR7”
T1 sequence (P18089 whole entry): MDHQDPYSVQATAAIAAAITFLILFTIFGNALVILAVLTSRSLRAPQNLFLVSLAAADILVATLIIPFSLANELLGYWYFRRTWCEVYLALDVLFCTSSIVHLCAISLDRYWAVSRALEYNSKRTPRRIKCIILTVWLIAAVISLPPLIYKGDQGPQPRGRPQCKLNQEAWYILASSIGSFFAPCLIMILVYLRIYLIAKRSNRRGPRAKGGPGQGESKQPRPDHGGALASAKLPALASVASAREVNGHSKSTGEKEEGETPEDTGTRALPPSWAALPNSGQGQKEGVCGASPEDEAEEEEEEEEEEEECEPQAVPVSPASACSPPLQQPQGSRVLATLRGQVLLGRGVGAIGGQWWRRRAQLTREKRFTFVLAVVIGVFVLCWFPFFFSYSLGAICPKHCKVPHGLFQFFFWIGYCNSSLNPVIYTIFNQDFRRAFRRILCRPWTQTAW

[5] = target: T2, Alpha-2C adrenergic receptor (Homo sapiens, UniProt P18825); test: as §1, with “ADRA2C” for “HTR7”
T2 sequence (P18825 whole entry): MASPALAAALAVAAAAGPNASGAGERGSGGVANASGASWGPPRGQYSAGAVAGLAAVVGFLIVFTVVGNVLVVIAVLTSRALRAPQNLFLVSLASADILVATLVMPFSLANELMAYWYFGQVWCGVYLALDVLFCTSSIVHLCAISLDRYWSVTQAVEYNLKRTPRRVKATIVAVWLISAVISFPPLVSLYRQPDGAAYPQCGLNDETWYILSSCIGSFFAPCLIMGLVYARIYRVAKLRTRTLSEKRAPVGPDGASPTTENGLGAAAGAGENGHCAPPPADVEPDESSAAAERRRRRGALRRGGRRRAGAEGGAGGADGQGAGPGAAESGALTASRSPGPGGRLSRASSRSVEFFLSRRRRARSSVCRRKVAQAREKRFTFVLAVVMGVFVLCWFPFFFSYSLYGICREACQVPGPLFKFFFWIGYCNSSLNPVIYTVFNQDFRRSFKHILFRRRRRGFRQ

[6] = target: D(1A) dopamine receptor (Homo sapiens, UniProt P21728); test: as §1, with “DRD1” for “HTR7”
Chain of D(1A) dopamine receptor (P21728 whole entry): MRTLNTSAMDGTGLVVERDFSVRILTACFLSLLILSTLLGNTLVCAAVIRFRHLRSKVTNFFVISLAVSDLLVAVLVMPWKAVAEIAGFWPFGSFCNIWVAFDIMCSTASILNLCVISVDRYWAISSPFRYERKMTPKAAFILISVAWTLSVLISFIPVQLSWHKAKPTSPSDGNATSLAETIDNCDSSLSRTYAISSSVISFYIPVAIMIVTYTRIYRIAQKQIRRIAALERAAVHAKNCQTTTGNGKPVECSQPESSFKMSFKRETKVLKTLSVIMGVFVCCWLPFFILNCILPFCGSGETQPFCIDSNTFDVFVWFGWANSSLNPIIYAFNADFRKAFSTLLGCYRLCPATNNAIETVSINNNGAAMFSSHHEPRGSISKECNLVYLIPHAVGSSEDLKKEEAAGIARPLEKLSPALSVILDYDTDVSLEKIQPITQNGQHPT

[7] = target: T3, Alpha-1D adrenergic receptor (Homo sapiens, UniProt P25100); test: as §1, with “ADRA1D” for “HTR7”
T3 sequence (P25100 whole entry): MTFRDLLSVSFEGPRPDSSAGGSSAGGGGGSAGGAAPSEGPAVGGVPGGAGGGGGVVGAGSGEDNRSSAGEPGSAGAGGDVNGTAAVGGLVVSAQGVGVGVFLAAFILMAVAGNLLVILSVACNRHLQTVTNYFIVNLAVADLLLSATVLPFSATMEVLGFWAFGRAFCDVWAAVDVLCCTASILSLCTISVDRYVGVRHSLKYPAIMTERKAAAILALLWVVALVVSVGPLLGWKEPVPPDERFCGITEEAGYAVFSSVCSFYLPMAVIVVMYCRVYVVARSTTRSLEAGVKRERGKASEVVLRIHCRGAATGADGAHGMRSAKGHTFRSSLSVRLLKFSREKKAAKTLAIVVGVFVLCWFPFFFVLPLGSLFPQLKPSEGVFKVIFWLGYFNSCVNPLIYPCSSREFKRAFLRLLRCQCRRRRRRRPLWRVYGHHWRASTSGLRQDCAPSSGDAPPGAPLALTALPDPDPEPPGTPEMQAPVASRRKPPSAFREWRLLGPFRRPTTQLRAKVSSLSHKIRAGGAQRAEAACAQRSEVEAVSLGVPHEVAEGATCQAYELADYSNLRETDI

[8] = target: T4, Muscarinic acetylcholine receptor M1 (Homo sapiens, UniProt P11229); test: as §1, with “CHRM1” for “HTR7”
T4 sequence (P11229 whole entry): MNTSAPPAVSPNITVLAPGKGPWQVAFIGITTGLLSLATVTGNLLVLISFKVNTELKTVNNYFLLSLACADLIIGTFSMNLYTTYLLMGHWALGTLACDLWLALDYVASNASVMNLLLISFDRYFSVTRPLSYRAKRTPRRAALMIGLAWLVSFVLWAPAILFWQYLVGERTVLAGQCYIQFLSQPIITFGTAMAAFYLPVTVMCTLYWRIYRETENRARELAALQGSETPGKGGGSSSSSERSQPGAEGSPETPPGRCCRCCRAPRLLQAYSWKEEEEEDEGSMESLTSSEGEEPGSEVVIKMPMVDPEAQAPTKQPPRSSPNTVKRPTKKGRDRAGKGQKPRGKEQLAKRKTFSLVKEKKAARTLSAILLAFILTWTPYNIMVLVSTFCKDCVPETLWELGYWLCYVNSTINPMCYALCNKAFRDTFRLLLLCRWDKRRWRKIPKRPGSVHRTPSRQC

[9] = target: Muscarinic acetylcholine receptor M3 (Homo sapiens, UniProt P20309); test: as §1, with “CHRM3” for “HTR7”
Chain of Muscarinic acetylcholine receptor M3 (P20309 whole entry): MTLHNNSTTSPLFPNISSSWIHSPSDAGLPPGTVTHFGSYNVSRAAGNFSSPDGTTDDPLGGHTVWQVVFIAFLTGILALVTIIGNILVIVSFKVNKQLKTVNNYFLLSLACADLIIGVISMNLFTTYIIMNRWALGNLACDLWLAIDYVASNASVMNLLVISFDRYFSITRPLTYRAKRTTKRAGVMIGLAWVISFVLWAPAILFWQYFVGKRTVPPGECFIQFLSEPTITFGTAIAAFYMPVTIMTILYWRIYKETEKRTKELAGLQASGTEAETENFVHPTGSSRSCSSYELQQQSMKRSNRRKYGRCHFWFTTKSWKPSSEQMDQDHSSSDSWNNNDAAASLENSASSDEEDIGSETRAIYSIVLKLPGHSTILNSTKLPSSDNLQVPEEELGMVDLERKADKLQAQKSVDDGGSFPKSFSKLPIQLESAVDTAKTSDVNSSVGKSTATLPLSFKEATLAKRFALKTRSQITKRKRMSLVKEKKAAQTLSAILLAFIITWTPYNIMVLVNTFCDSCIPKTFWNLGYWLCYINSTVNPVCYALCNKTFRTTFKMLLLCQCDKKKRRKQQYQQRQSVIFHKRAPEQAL

[10] = target: 5-hydroxytryptamine receptor 2B (Homo sapiens, UniProt P41595); test: as §1, with “HTR2B” for “HTR7”
Chain of 5-hydroxytryptamine receptor 2B (P41595 whole entry): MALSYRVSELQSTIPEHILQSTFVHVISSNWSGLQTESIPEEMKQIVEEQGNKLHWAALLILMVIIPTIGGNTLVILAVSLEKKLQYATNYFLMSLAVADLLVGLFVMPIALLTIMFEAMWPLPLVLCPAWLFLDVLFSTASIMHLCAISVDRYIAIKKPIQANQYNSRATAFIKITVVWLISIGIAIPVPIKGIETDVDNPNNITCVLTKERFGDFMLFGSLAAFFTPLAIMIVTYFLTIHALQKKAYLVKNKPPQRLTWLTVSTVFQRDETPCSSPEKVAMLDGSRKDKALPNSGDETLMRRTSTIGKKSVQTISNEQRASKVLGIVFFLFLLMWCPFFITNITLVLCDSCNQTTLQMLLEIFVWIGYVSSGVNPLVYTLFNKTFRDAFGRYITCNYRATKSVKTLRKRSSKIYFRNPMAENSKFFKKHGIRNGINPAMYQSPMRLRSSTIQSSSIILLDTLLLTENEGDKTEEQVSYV

In the case of `S=C(NCCCc1c[nH]cn1)NCCCN(Cc1ccc(Cl)c(Cl)c1)c1ccc(Br)cn1`, the Ki [1] is reported as 1540 nM, the Ki [2] is reported as 295 nM and the Ki [3] is reported as 153 nM. It also gave a Ki [4] of 512 nM, a Ki [5] of 536 nM and a Ki [6] of 1720 nM. For the same molecule, the Ki [7] was 1700 nM and the Ki [8] was 2580 nM.
Molecule `Cc1c(P(=S)(c2ccccc2)c2ccccc2)n2ccccc2[n+]1C/C=C/c1ccccc1` has a Ki [3] of 701 nM, a Ki [5] of 222 nM and a Ki [8] of 1180 nM. It also gave a Ki [9] of 1140 nM.
Molecule `COc1cc(-n2cnc3cc(-c4ccc(Cl)cc4)sc3c2=O)ccc1OCCN1CCCC1` has a Ki [3] of 185 nM, a Ki [10] of 528 nM and a Ki [7] of 6050 nM. It also gave a Ki [8] of 1240 nM and a Ki [9] of 4130 nM.
`Clc1cccc(COc2cncc(N3CCNCC3)n2)c1` showed a Ki [1] of 556 nM, a Ki [10] of 9.94 nM and a Ki [8] of 955 nM. For the same molecule, the Ki [9] was 851 nM.
In the case of `CN1CCN(c2ccc(Nc3c4ccccc4nc4ccccc34)cc2)CC1`, the Ki [1] is reported as 414 nM, the Ki [2] is reported as 451 nM and the Ki [3] is reported as 936 nM. The Ki [6] was 4540 nM, the Ki [7] was 1750 nM and the Ki [8] was 717 nM.
`COc1ccc(NC(=O)c2ccc(-c3ccc(-c4noc(C)n4)cc3C)cc2)cc1OCCN(C)C` gave a Ki [1] of 1100 nM, a Ki [2] of 984 nM and a Ki [3] of 694 nM. For the same molecule, the Ki [4] was 667 nM, the Ki [5] was 704 nM and the Ki [8] was 1910 nM.
`CCc1ccc(OCc2ccccc2C(=O)Nc2ccc3nc(C)cc(N)c3c2)cc1` gave a Ki [3] of 700 nM, a Ki [10] of 227 nM and a Ki [4] of 3140 nM. It also gave a Ki [7] of 2080 nM and a Ki [8] of 2330 nM.
For `CN1CCCC(n2nc(Cc3ccc(Cl)cc3)c3ccccc3c2=O)CC1` (stereo unspecified) [AZELASTINE HYDROCHLORIDE], the Ki [1] was 385 nM, the Ki [3] was 32 nM and the Ki [4] was 230 nM. For the same molecule, the Ki [6] was 577 nM, the Ki [7] was 333 nM and the Ki [9] was > 10000 nM.
`O=c1ccc2ccc(OCCCCN3CCN(c4cccc5sccc45)CC3)cc2[nH]1` [BREXPIPRAZOLE] was tested, and the Ki [1] was 30.4 nM, the Ki [2] was 364 nM and the Ki [3] was 63 nM. It also gave a Ki [4] of 191 nM, a Ki [5] of 59.9 nM and a Ki [6] of 37.5 nM. The Ki [7] was 76.4 nM.
Molecule `CN(C)C(=O)N[C@H]1CC[C@H](CCN2CCN(c3cccc(Cl)c3Cl)CC2)CC1` [CARIPRAZINE HYDROCHLORIDE] has a Ki [1] of 76.1 nM, a Ki [3] of 488 nM and a Ki [4] of 1090 nM. It also gave a Ki [5] of 234 nM and a Ki [7] of 323 nM.
Molecule `CN1C[C@H](C(=O)N[C@]2(C)O[C@@]3(O)[C@@H]4CCCN4C(=O)[C@H](Cc4ccccc4)N3C2=O)C[C@@H]2c3cccc4[nH]cc(c34)C[C@H]21` [DIHYDROERGOTAMINE MESYLATE] has a Ki [1] of 60.2 nM and a Ki [3] of 2840 nM.
`O=S1(=O)c2cccc3cccc(c23)N1CCCN1CCN(c2ccc(F)cc2)CC1` [FANANSERIN] showed a Ki [1] of 744 nM, a Ki [2] of 2690 nM and a Ki [3] of 1320 nM. For the same molecule, the Ki [4] was 667 nM and the Ki [5] was 1030 nM.
For `Cc1ccc2c(c1)c1c(n2CCc2ccc(C)nc2)CCN(C)C1` [LATREPIRDINE], the Ki [1] was 14.7 nM, the Ki [10] was 603 nM and the Ki [4] was 45.8 nM. The Ki [5] was 2920 nM and the Ki [7] was 767 nM.
`CCc1nn(CCCN2CCN(c3cccc(Cl)c3)CC2)c(=O)n1CCOc1ccccc1` [NEFAZODONE HYDROCHLORIDE] showed a Ki [1] of 70.2 nM, a Ki [3] of 222 nM and a Ki [4] of 192 nM. The Ki [5] was 359 nM and the Ki [7] was 445 nM.
With `COC(=O)C1=C(C)NC(C)=C(C(=O)OCCCN2CCC(c3ccccc3)(c3ccccc3)CC2)[C@H]1c1cccc([N+](=O)[O-])c1` [NIGULDIPINE] the Ki [1] was 313 nM, the Ki [2] was 591 nM and the Ki [3] was 328 nM. For the same molecule, the Ki [6] was 370 nM and the Ki [9] was 2150 nM.
`Cc1nc2sccn2c(=O)c1CCN1CCC(=C(c2ccc(F)cc2)c2ccc(F)cc2)CC1` [RITANSERIN] gave a Ki [1] of 47.3 nM, a Ki [2] of 318 nM and a Ki [3] of 339 nM. The Ki [4] was 655 nM, the Ki [5] was 375 nM and the Ki [6] was 330 nM.
`OCc1cc(C(O)CNCCCCCCOCCCCc2ccccc2)ccc1O` (stereo unspecified) [SALMETEROL] gave a Ki [1] of 257 nM, a Ki [2] of 149 nM and a Ki [3] of 32.4 nM. It also gave a Ki [4] of 1940 nM and a Ki [7] of 963 nM.
`Cc1nc(-c2ccc(-c3ccc(C(=O)N4CCc5cc6c(cc54)C4(CCN(C)CC4)CO6)cc3)c(C)c2)no1` [SB-224289] showed a Ki [2] of 1180 nM, a Ki [3] of 502 nM and a Ki [4] of 2170 nM. It also gave a Ki [6] of 369 nM, a Ki [7] of 2110 nM and a Ki [8] of 1260 nM. For the same molecule, the Ki [9] was 926 nM.
`C[C@H](Cc1cc2c(c(C(N)=O)c1)N(CCCO)CC2)NCCOc1ccccc1OCC(F)(F)F` [SILODOSIN] was tested, and the Ki [1] was 480 nM, the Ki [10] was 2090 nM and the Ki [4] was 786 nM. For the same molecule, the Ki [5] was 360 nM and the Ki [7] was 47.3 nM.
In the case of `CCCCCNC(=N)N/N=C/c1c[nH]c2ccc(OC)cc12` [TEGASEROD MALEATE], the Ki [3] is reported as 57.2 nM, the Ki [10] is reported as 15.6 nM and the Ki [4] is reported as 2840 nM. For the same molecule, the Ki [7] was 1640 nM.
`N#Cc1ccc2[nH]cc(CCCCN3CCN(c4ccc5oc(C(N)=O)cc5c4)CC3)c2c1` [VILAZODONE HYDROCHLORIDE] gave a Ki [1] of 794 nM, a Ki [2] of 21.8 nM and a Ki [3] of 1090 nM. It also gave a Ki [10] of 65 nM, a Ki [5] of 1380 nM and a Ki [7] of 716 nM.
